The numbers were not newly measured in PubChem BioAssay AID493017, which cites them from elsewhere.

What is called IC50 is the concentration that inhibits the measured activity by half. Broadly, the Kd is the constant that tells how readily two partners part at equilibrium. Broadly, the Ki is the dissociation constant of the complex between target and ligand, obtained from inhibition or displacement.

For the first series, the target named is Estrogen receptor (Homo sapiens) (UniProt P03372). Nature of the series: PubChem AID 493017. The following applies: WOMBAT literature affinities, multiple human targets; ERalpha; gene ESR1; NCBI gene 2099.
Chain of Estrogen receptor (Homo sapiens) (P03372 whole entry, looked up): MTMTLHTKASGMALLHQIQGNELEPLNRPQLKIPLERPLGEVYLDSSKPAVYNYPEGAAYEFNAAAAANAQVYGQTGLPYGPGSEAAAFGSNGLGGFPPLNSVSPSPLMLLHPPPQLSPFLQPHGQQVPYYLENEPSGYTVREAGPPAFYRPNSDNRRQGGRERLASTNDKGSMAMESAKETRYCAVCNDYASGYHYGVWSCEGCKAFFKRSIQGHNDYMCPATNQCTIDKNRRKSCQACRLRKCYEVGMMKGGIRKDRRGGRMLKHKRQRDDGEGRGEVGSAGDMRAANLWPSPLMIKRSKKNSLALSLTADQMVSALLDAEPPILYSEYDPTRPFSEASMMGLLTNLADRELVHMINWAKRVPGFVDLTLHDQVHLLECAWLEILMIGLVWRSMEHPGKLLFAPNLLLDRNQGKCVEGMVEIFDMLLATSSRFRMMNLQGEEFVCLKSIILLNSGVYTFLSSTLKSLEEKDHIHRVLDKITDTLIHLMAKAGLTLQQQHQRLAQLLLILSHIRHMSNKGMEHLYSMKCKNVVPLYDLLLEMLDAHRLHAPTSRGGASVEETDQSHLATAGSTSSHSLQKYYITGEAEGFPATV
Consider `CCC(=C(c1ccccc1)c1cnn(OCCN(C)C)c1)c1ccccc1`, for which the IC50 is 2800 nM. Consider `CCC(=C(c1ccccc1)c1cnn(OCCCN(C)C)c1)c1cccs1`, for which the IC50 was 200 nM. For `CCNC(=O)CC1C[C@]2(C)C(O)CCC2C2CCc3cc(O)ccc3C12` (some centres undefined), the IC50 is 1800 nM. With `Oc1ccc(-n2cc3ccc(O)c(Br)c3n2)cc1`, the IC50 is 2000 nM.

For the molecule `Oc1ccc(-n2cc3ccccc3n2)cc1`, the IC50 was 2000 nM.

As to `CCc1nc(-c2ccc(O)cc2)c(-c2ccc(O)cc2)nc1CC`, the IC50 was 20.8 nM. Consider `CCC(=C(c1ccccc1)c1ccnn1O)c1ccccc1`, for which the IC50 was 10000 nM. `CCNC1=C(c2ccc(O)cc2)C(=O)c2cc(O)cc(O)c21`: the concentration for half-maximal inhibition (IC50) was 2700 nM. For `C=C[C@]12CCC(O)CC1=CCC1C3CCC(O)[C@@]3(C)CCC12` (some centres undefined), the IC50 was 2240 nM. Turning to `CCC(=C(c1ccccc1)c1ccnn1OCCCN(C)C)c1ccccc1`, the IC50 was 1400 nM. Take `C[C@]12CCC3c4ccc(O)cc4CCC3C1CC[C@@]2(O)CCNC(=O)CBr` (some centres undefined): the IC50 was 1600 nM.

For `CCCc1nc(-c2ccc(O)cc2)c(CCC)nc1-c1ccc(O)cc1`, the IC50 is 0.11 nM.

As to `Oc1ccc2nn(-c3ccccc3)c(Cl)c2c1`, the IC50 was 1330 nM. In the case of `CCc1c(Cc2ccccc2)nc(-c2ccc(O)cc2)nc1-c1ccc(O)cc1`, the IC50 was 2.08 nM. `CCc1nc(-c2ccc(O)cc2)c(-c2ccc(O)cc2)nc1-c1ccc(O)cc1`: the IC50 was 2.38 nM. On to `COc1ccc2c(C(=O)c3ccc(OCCN4CCCCC4)cc3)c(-c3ccc(O)cc3)sc2c1`, for which the IC50 was 2000 nM. Consider `O=C(c1ccc(OCCN2CCCCC2)cc1)c1c(-c2ccc(O)cc2)sc2ccc(O)cc12`, for which the IC50 is 160 nM.

The same series, now with this note: WOMBAT literature affinities, multiple human targets; binding affinity Kd; ERalpha; gene ESR1; NCBI gene 2099.
Regarding `COc1ccc2c(c1)CN(c1ccc(OCCN3CCCCC3)cc1)C1=C2CCc2cc(OC)ccc21`, the Kd is 3000 nM.

Turning to `CCc1c(-c2ccc(O)cc2)oc(-c2ccc(O)cc2)c1-c1ccc(O)cc1`, the Kd is 0.214 nM. For `CCc1c(-c2ccc(O)cc2)nn(-c2ccc(O)cc2)c1-c1ccc(O)cc1`, the Kd was 0.83 nM. With `C[C@]12CC(O)C3c4ccc(O)cc4CCC3C1CCC2O` (some centres undefined), the Kd is 16.1 nM.

As to `CCC1c2ccc(O)cc2C(C)C1c1ccc(O)cc1` (centres undefined), the Kd was 15 nM. As to `O=c1c2cc(O)ccc2c2ccc3cc(O)ccc3c2n1-c1ccc(OCCN2CCCCC2)cc1`, the Kd is 3000 nM. As to `CC1(C)CC(c2ccc(O)cc2)=C(c2ccc(O)cc2)CC1(C)C`, the Kd is 2 nM. Regarding `CCCC1C(c2ccc(O)cc2)=C(CC)c2ccc(O)cc21` (centres undefined), the Kd was 1.67 nM. Consider `C[C@]12CCC3c4ccc(O)cc4CCC3C1C(O)CC2O` (some centres undefined), for which the Kd is 12 nM. In the case of `CON=Cc1ccc(-c2ccccc2)c(-c2ccccc2)c1O`, the Kd is 2500 nM. Take `O=C1c2cc(O)ccc2C2CC1c1ccc(O)cc1C2=O`: the Kd is 5000 nM.

Still in this series, the particulars now being: WOMBAT literature affinities, multiple human targets; binding affinity Ki; ERalpha; gene ESR1; NCBI gene 2099.
Turning to `Oc1ccc(-c2c(-c3ccccc3)nn3cccnc23)cc1`, the Ki was 2000 nM. `Oc1ccc2c(c1)CCC21C=C(c2ccc(OCCN3CCCC3)cc2)c2cc(O)ccc21` (centres undefined): the Ki is 21.4 nM. As to `CCC1=C(c2ccc(O)cc2)C(C(=O)Nc2ccc(OCCN(C)C)cc2)c2cc(O)ccc21` (centres undefined), the Ki was 1420 nM. Regarding `CC(C)c1cc(C(C)C)n2nc(-c3ccc(O)cc3)c(-c3cccc(O)c3)c2n1`, the Ki was 2000 nM.

Take `Oc1ccc(-c2c(-c3cccc(O)c3)nn3c(C(F)(F)F)cc(C(F)(F)F)nc23)cc1`: the inhibition constant (Ki) was 2000 nM.

As for `Cc1nc2c(-c3ccccc3)c(-c3ccc(O)cc3)nn2c(C)c1C`, the Ki is 2000 nM. `Oc1ccc(C2=C(c3ccccc3)c3ccc(O)cc3C2)cc1`: the Ki was 63.3 nM.

On to `Oc1ccc2c3c(sc2c1)Cc1cccc(O)c1C3c1ccc(OCCN2CCCCC2)cc1` (centres undefined), for which the Ki was 2.6 nM. `O=C(O)c1ccc(C2=C(c3ccc(O)cc3)Cc3cc(O)ccc32)cc1`: the Ki was 2850 nM.

For the molecule `CCC(=C(Cc1ccc(OCCN2CCOCC2)cc1)c1ccccc1)c1ccccc1`, the Ki was 2480 nM.

As for `Oc1ccc2c(c1)CCC21C=C(c2ccc(OCCN3CCCCC3)cc2)c2cc(O)ccc21` (centres undefined), the Ki is 25.3 nM.
